Consider 11 compounds from paper PMC5352783, “Characterization and cytotoxic effect of aqua-(2,2′,2′′-nitrilotriacetato)-oxo-vanadium salts on human osteosarcoma cells” (Biometals, 2017).

The nature of series [1]: Potentiometric titration, equilibrium constants of complex species in aqueous solution. Format: physicochemical. The settings on record: for Logarithm of equilibrium constant, reaction 1: A + H3O^+ ⇋ AH^+ + H2O (AH^+ = bpyH^+ or phenH^+) / Logarithm of equilibrium constant, reaction 2 ([drawing 1]) / Logarithm of equilibrium constant, reaction 3 ([drawing 2]): 298.15 K, ionic strength 0.1 M NaClO4, standard deviation in parentheses. As for the experimental part:
Potentiometric titrations were performed at 298.15 K by using Cerko Lab System microtitration unit fitted with 5‐mL Hamilton’s syringe and pH‐combined electrode (Schott‐BlueLine 16 pH type) All details for the measuring devices and the experimental setup were described in (Wyrzykowski et al. [2014]). The ionic strength was maintained at 0.1 M using NaClO4. The 6 mM [bpyH][VO(nta)(H2O)]H2O and [phenH][VO(nta)(H2O)](H2O)0.5 solutions (Vo = 5.0 mL) were potentiometrically titrated with a standardized NaOH solution (0.098 M). The concentration distribution of various complex species existing in the solution as a function of pH was obtained using the HySS program (Alderighi et al. [1999]).
The potentiometric titration method has been applied for studying the stability of [bpyH][VO(nta)(H2O)]H2O and [phenH][VO(nta)(H2O)](H2O)0.5 in aqueous solutions. The logarithm of the overall equilibrium constants of the complex species (Table 5) were refined by least-squares calculations using the Hyperquad2008 (ver. 5.2.19) computer program (Gans et al. [1996]).

Series [2] concerns streptozotocin-induced (STZ) diabetic rats. Further details: method as in Thompson and Orvig [2006]. The following applies: oral, ref Thompson and Orvig [2006]; cited from earlier work.
The test system of series [3] is tumoral cell lines of human origin. Further details: method as in Evangelou [2002]; D’Cruz and Uckun [2002]; Dong et al. [2000]. The settings on record: leukemia, breast, ovarian, prostate and testicular cancer cells; ref Evangelou [2002]; D’Cruz and Uckun [2002]; Dong et al. [2000]; cited from earlier work.
The test system of another series is DNA. The settings on record: comparison of the three VO-oda compounds; cited from earlier work.
In series [4] the test system is UMR106 derived from rat osteosarcoma cells. The settings on record: cited from earlier work; for Cytotoxicity, normal versus tumoral osteoblasts: MC3T3E1 (normal) versus UMR106 (tumoral); for Cellular proliferation: UMR106.
The test system of another series is human osteosarcoma cells. Further details: method as in Yodoshi et al. [2007]. The following applies: rank among the three VO-oda compounds; ref Yodoshi et al. [2007]; cited from earlier work.
In series [5] the test system is MC3T3E1 derived from mouse calvaria. The following applies: cited from earlier work.
The test system of series [6] is animal and human cancer cell lines. Further details: method as in earlier work. The following applies: ref Havelek et al. [2012]; Vinklarek et al. [2004]; Gleeson et al. [2009]; Palackova et al. [2007]; cited from earlier work.
Series [7] has as its system human osteosarcoma cell (HOS). Kind of series: BrdU test, cell proliferation. Format: cell-based. The following applies: 48 h. As for the experimental part:
(§1) The cell lines: two human osteosarcoma cell lines (MG-63 and HOS) and untransformed hFOB were used to assess an anti-proliferative and cytotoxic effect, respectively. hFOB cells were grown in a mixture of Dulbecco’s Modified Eagle’s Medium and Ham F12 medium (1:1 ratio), MG-63 and HOS in Eagle’s Minimum Essential Medium also containing sodium pyruvate 110 mg/L and supplemented with 10% fetal bovine serum, 6 μg/mL penicillin-G, and 10 μg/mL streptomycin.
(§2) Cultured cancer cells with 80–90% confluence were used for plating. The adherent cells were trypsinized to detach cells. 100 µL of cells were seeded into each well of the 96-wells plates (1–5 × 10^4 cells per well). The plate was maintained at 37 °C in a incubator for 48 h until 80–90% confluence. Then, old media were discarded and the cells were treated with tested compounds and cisplatin as positive control. The concentrations of investigated compounds used in experiments were carefully selected according to the results obtained from a preliminary concentration–response study (data not shown). […] Fresh solutions of cisplatin were made up for each experiment owing to its instability in water. […]
Fig. 9 The inhibition of the human osteosarcoma cell (HOS) proliferation after an incubation with investigated compounds assessed with the BrdU-test. […] Data are expressed as mean values ± SD from three experiments. ***p < 0.001 versus control

The test system of series [8] is human osteosarcoma cell (MG-63). Kind of series: BrdU test, cell proliferation. It is filed as cell-based. The settings on record: 48 h. As for the experimental part: as §1, §2
Fig. 8 The inhibition of the human osteosarcoma cell (MG-63) proliferation after an incubation with investigated compounds assessed with the BrdU-test. […] Data are expressed as mean values ± SD from three experiments. ***p < 0.001 versus control

For series [9] the following is noted: at 25 °C; cited from earlier work.

Where two headings read alike, the source gives them in different places. Marks after values point to notes of the source that are not given here. Where only a bound is given, the exact number is not on record here.

In the case of “2,2′-bipyridinium aqua-(2,2′,2′′-nitrilotriacetato)-oxo-vanadium monohydrate [[bpyH][VO(nta)(H2O)]H2O]”, in series [1], the “Logarithm of equilibrium constant, reaction 1: A + H3O^+ ⇋ AH^+ + H2O (AH^+ = bpyH^+ or phenH^+)” value is 4.47 (0.03)^a; the “Logarithm of equilibrium constant, reaction 2 ([drawing 1])” value is 7.80 (0.06); the “Logarithm of equilibrium constant, reaction 3 ([drawing 2])” value is −19.94 (0.06).

`CCc1occc(=O)c1[O][V](=[O])[O]c1c(CC)occc1=O` [BEOV, VO(Etmaltolato)2]: the “Effect on plasma glucose levels” value in [2] is “lower plasma glucose levels”.

As for `Cc1occc(=O)c1[O-].Cc1occc(=O)c1[O-].[O]=[V+2]` [BMOV, VO(maltolato)2], the “Effect on plasma glucose levels” value in series [2] is given as “lower plasma glucose levels”.

As to `Cc1ccnc2c1ccc1c(C)ccnc12.Cc1ccnc2c1ccc1c(C)ccnc12.O=S(=O)([O-])[O-].[O]=[V+2]` [Metvan], the Apoptosis entry in [3] was “induces apoptosis”.

Consider `O=C([O-])COCC(=O)[O-].[O]=[V+2].c1ccc(-c2ccccn2)nc1` [VO(oda)(bpy)], for which the “DNA cleavage (nuclease activity)” value with DNA was “similar”. Besides, the “Cytotoxicity, normal versus tumoral osteoblasts” value in series [4] (ref León et al. [2012b]) was “statistically stronger in the tumoral cells”.

For `O=C([O-])COCC(=O)[O-].[O]=[V+2].c1cnc2c(c1)ccc1cccnc12` [VO(oda)(phen)], the Antitumor action entry in the series on human osteosarcoma cells was “most potent antitumor action”. For the same compound, the “DNA cleavage (nuclease activity)” value in the series with DNA is “stronger effect”. Moreover, the Cellular proliferation entry in [5] (ref León et al. [2012b]) is on record as “inhibition of the cellular proliferation”. In series [4] (ref León et al. [2012b]), the “Cytotoxicity, normal versus tumoral osteoblasts” value is listed as “stronger in the normal than in the tumoral osteoblasts” and the Cellular proliferation entry was “inhibition of the cellular proliferation”.

On to `O=C([O-])COCC(=O)[O-].[O]=[V+2]` [VO(oda)], for which, in the series on DNA, the “DNA cleavage (nuclease activity)” value is given as “similar”. Moreover, the Cellular proliferation result in series [5] (ref Rivadeneira et al. [2010]) is “inhibition of a cellular proliferation”. Moreover, in series [4] (ref Rivadeneira et al. [2010]), the “Cytotoxicity, normal versus tumoral osteoblasts” value is recorded as “stronger in the normal (MC3T3E1) than in the tumoral (UMR106) osteoblasts” and the Cellular proliferation result is recorded as “inhibition of a cellular proliferation”.

Regarding `[Cl-].[Cl-].[V+4].c1cc[cH-]c1.c1cc[cH-]c1` [[VCp2Cl2], bis(cyclopentadienyl) dichloro-V(IV)], the “In vitro activity against cancer cell lines” value in series [6] is “high in vitro activity”.

In the case of `O.O=C([O-])CN(CC(=O)[O-])CC(=O)[O-].[O]=[V+2]` [[VO(nta)(H2O)]^−], in series [1] (aqueous solution, species distribution from the equilibrium constants), the “pH up to which the aqua complex is stable” value is on record as ≤ 5.

`O.O=C([O-])CN(CC(=O)[O-])CC(=O)[O-].[O]=[V+2].c1cnc2c(c1)ccc1ccc[nH+]c12` [[phenH][VO(nta)(H2O)](H2O)0.5]: the “Anti-proliferative activity (BrdU incorporation)” value in [7] (1-100 μM) and in [8] (1-100 μM) was “most effective anti-proliferative activity” in each case. The “Anti-proliferative activity compared with cis-Pt(NH3)2Cl2” value in series [7] (BrdU test) and in series [8] (BrdU test) was “significantly higher” each time. Also, the “Logarithm of equilibrium constant, reaction 1: A + H3O^+ ⇋ AH^+ + H2O (AH^+ = bpyH^+ or phenH^+)” value in series [1] is given as 5.00 (0.04)^a. Besides, in [1], the “Logarithm of equilibrium constant, reaction 2 ([drawing 1])” value is on record as 7.93 (0.07). Also, the “Logarithm of equilibrium constant, reaction 3 ([drawing 2])” value in series [1] is listed as −19.91 (0.08).

cis-Pt(NH3)2Cl2 [cisplatin]: in series [9], the water solubility is 0.253 g/100 mL.
